Ends that are not written are not given here.
Test system: prostate cancer
Test: Clinical studies in men with BPH given SEQ ID NO. 66 by intraprostatic injection; incidence of clinically or biopsy detected prostate cancer
Assay type: in vivo, human (men)
Settings: 2.5 mg intraprostatic injection; for Incidence of cancer (Gleason Grade >= 7): follow-up up to 6.5 years, compared to known expected incidence of 5-6%
Description: In a series of clinical studies undertaken between 2009 and 2016 a total of 628 men with benign prostatic hyperplasia (BPH) received SEQ ID NO. 66 (Ile-Asp-Gln-Gln-Val-Leu-Ser-Arg-Ile-Lys-Leu-Glu-Ile-Lys-Arg-Cys-Leu), 2.5 mg given by intraprostatic injection into the transition zone of the prostate to treat the symptoms of BPH and were subsequently followed clinically and by laboratory testing. After intervals up to 6.5 years after injection, all available patients were followed urologically at specialized clinics with investigation of BPH symptoms and events of disease progression and safety assessments. All cases of clinically or biopsy detected prostate cancer were documented. The incidence of new biopsy or surgically proven prostate cancer after 12 months and overall was compared to the incidence of detected prostate cancer in large long-term clinical trials in the medical literature. Although a) the treatments were for BPH; b) the injections were directed at the central part of the prostate where cancer is less common; and c) the injections consisted of only a single or two injection(s) of SEQ ID NO. […]
In a series of clinical studies undertaken between 2009 and 2016, a total of 816 men with benign prostatic hyperplasia (BPH) received SEQ ID NO. […] All cases of clinically or biopsy detected prostate cancer were documented. The incidence of new biopsy or surgically proven prostate cancer after 12 months and overall was compared to the incidence of detected prostate cancer in the patients receiving the sterile saline solution (control). […]
In a series of clinical studies undertaken between 2009 and 2016 a total of 628 men with benign prostatic hyperplasia (BPH) received SEQ ID NO. […] All cases of clinically or biopsy detected prostate cancer were documented. The incidence of new biopsy or surgically proven prostate cancer of Gleason Grade>=7 was compared to the incidence of detected prostate cancer in large long-term clinical trials in the medical literature. […]

IDQQVLSRIKLEIKRCL [SEQ ID NO: 66]
incidence of prostate cancer (after 12 months and overall) (compared to known expected incidence of 2-25%): 0-1.3%
Incidence of cancer (Gleason Grade >= 7): <0.3%
Incidence of cancer (Gleason Grade >= 7) (listed as SEQ ID NO. 66): < 0.3%
